Test results taken from patent publication US20250346606A1, “CAMPTOTHECIN COMPOUND, PREPARATION METHOD THEREFOR, AND APPLICATION THEREOF” (SICHUAN KELUN-BIOTECH BIOPHARMACEUTICAL CO., LTD., priority 2021, published 2025).
Read-outs that look alike come from different tables or passages of the source.

Key:
HT29 cells = test: Inhibitory effect of compounds on HT29 cell proliferation; assay type: cell-based, Human; conditions: read-out: IC50, inhibitory activity on HT29 cell proliferation
Protocol: (1) Cell plating: First, tumor cells HT29 were cultured in corresponding medium, then digested with trypsin, centrifuged, resuspended, and counted, and the cells were adjusted to an appropriate concentration for plating.
(§1) Co-incubation of the compound of the present disclosure and tumor cells: after the cells adhered to the wall, the medium was removed, and the diluted bioactive molecule (the compound of the present disclosure) was added to the wells of the above plate, and incubated for 72 h.
(§2) In vitro cell viability detection: After the incubation, 50 μL of Cell Counting-Lite™ 2.0 reagent (Vazyme/Novazyme) was added to each well, shaken and mixed well in the dark, reacted for 10 minutes, and then the detection was carried out with a microplate reader (manufacturer: BMG, Model: PHERAStar-FS) for reading. The background RLU was obtained by using cell-free medium (with Cell Counting-Lite™), and the vehicle RLU was obtained by using cell-containing medium (with Cell Counting-Lite™). Cell inhibition rate=1−(sample RLU−background RLU)/(solvent RLU−background RLU)×100%. According to the four-parameter model fitting curve, the half maximal inhibitory concentration (IC50) of the compound was calculated, and the detection results were shown in Table 2.

NCI-H358 cells = test: Inhibitory effect of compounds on NCI-H358 cell proliferation; assay type: cell-based, Human
Protocol: (1) Cell plating: First, tumor cells NCI-H358 were cultured in corresponding medium, then digested with trypsin, centrifuged, resuspended, and counted, and the cells were adjusted to an appropriate concentration for plating.
as §1
as §2, with “Table 10.” for “Table 2.”

MDA-MB-453 cells = test: Inhibitory effect of compounds on MDA-MB-453 cell proliferation; assay type: cell-based; conditions: MDA-MB-453 human breast cancer cells, 72 h incubation, Cell Counting-Lite 2.0
Protocol: (1) Cell plating: First, tumor cells MDA-MB-453 were cultured in corresponding medium, then digested with trypsin, centrifuged, resuspended, and counted, and the cells were adjusted to an appropriate concentration for plating.
as §1
as §2, with “Table 22.” for “Table 2.”

HCC1806 cells = test: Inhibitory effect of compounds on HCC1806 cell proliferation; assay type: cell-based, Human
Protocol: (1) Cell plating: First, tumor cells HCC1806 were cultured in corresponding medium, then digested with trypsin, centrifuged, resuspended, and counted, and the cells were adjusted to an appropriate concentration for plating.
as §1
as §2, with “Table 6.” for “Table 2.”

NCI-N87 cells = test: Inhibitory effect of compounds on NCI-N87 cell proliferation; assay type: cell-based, Human
Protocol: (1) Cell plating: First, tumor cells NCI-N87 were cultured in corresponding medium, then digested with trypsin, centrifuged, resuspended, and counted, and the cells were adjusted to an appropriate concentration for plating.
as §1
as §2, with “Table 12.” for “Table 2.”

[1] = NCI-H358 human non-small cell lung cancer cells, 72 h incubation, Cell Counting-Lite 2.0, read-out: IC50, inhibitory activity on NCI-H358 cell proliferation
[2] = HCC1806 human breast squamous carcinoma cells, 72 h incubation, Cell Counting-Lite 2.0, read-out: IC50, inhibitory activity on HCC1806 cell proliferation
[3] = NCI-N87 human gastric cancer cells, 72 h incubation, Cell Counting-Lite 2.0, read-out: IC50, inhibitory activity on NCI-N87 cell proliferation
[4] = Homo sapiens, NCI-N87, 72 h, read-out: IC50, inhibitory activity on NCI-N87 cell proliferation, NCI-N87 human gastric cancer cells, 72 h incubation, Cell Counting-Lite 2.0
[5] = read-out: IC50, inhibitory activity on NCI-H358 cell proliferation, NCI-H358 human non-small cell lung cancer cells, 72 h incubation, Cell Counting-Lite 2.0
[6] = read-out: IC50, inhibitory activity on HCC1806 cell proliferation, HCC1806 human breast squamous carcinoma cells, 72 h incubation, Cell Counting-Lite 2.0
[7] = read-out: IC50, inhibitory activity on NCI-N87 cell proliferation, NCI-N87 human gastric cancer cells, 72 h incubation, Cell Counting-Lite 2.0

CC[C@@]1(O)C(=O)OCc2c1cc1n(c2=O)Cc2c-1nc1cc(Cl)c(C)c3c1c2[C@H](NCC(C)(C)O)CC3 [Example 6 (2-17-B), N-((1R,9S)-5-chloro-9-ethyl-9-hydroxy-4-methyl-10,13-dioxo-2,3,9,10,13,15-hexahydro-1H, 12H-benzo[de]pyrano[3′,4′:6,7]indolizino[1,2-b]quinolin-1-yl)-2-hydroxy-2-methylpropylamine]
IC50 (HT29 cells; Homo sapiens, HT-29, 72 h): 1.59 nM

CC[C@@]1(O)C(=O)OCc2c1cc1n(c2=O)Cc2c-1nc1cc(F)c(C3CC3)c3c1c2[C@H](NC(=O)CO)CC3 [Example 19 (5-22-B), N-((1R,9S)-4-cyclopropyl-9-ethyl-5-fluoro-9-hydroxy-10,13-dioxo-1,2,3,9,10,12,13,15-tetrahydrobenzo[de]pyrano[3′,4′:6,7]indolizino[1,2-b]quinolin-1-yl)-2-hydroxyacetamide]
IC50 (NCI-H358 cells; [1]): 61.4 nM
IC50 (MDA-MB-453 cells): 5.67 nM
IC50 (HCC1806 cells; [2]): 3.71 nM
IC50 (NCI-N87 cells; [3]): 5.51 nM

CC[C@@]1(O)C(=O)OCc2c1cc1n(c2=O)Cc2c-1nc1cc(Cl)c(C)c3c1c2[C@H](NC[C@@H](C)O)CC3 [Example 24 (2-27-B), (2R)—N-((1R,9S)-5-chloro-9-ethyl-9-hydroxy-4-methyl-10,13-dioxo-2,3,9,10,13,15-hexahydro-1H,12H-benzo[de]pyrano[3′,4:6,7]indolizino[1,2-b]quinolin-1-yl)-2-hydroxypropylamine]
IC50 (NCI-H358 cells; [1]): 69.1 nM
IC50 (HCC1806 cells; [2]): 3.93 nM
IC50 (NCI-N87 cells; [3]): 14.7 nM

CC[C@@]1(O)C(=O)OCc2c1cc1n(c2=O)Cc2c-1nc1cc(F)c(Cl)c3c1c2[C@H](N)CC3 (single isomer, unassigned) [Example 8 (3-1-B)]
IC50 (HT29 cells; Homo sapiens, HT-29, 72 h): 0.71 nM
IC50 (NCI-N87 cells; [4]): 1.34 nM

CC[C@@]1(O)C(=O)OCc2c1cc1n(c2=O)Cc2c-1nc1cc(F)c(Cl)c3c1c2[C@@H](NC(=O)C1(O)CC1)CC3 [Example 18 (3-17-A)]
IC50 (NCI-H358 cells; [1]): 13.3 nM
IC50 (MDA-MB-453 cells): 3.32 nM
IC50 (HCC1806 cells; [2]): 1.7 nM
IC50 (NCI-N87 cells; [3]): 3.01 nM

CC[C@@]1(O)C(=O)OCc2c1cc1n(c2=O)Cc2c-1nc1cc(F)c(Cl)c3c1c2[C@H](NC(=O)C1(O)CC1)CC3 [Example 18 (3-17-B)]
IC50 (NCI-H358 cells; [1]): 37.3 nM
IC50 (MDA-MB-453 cells): 6.16 nM
IC50 (HCC1806 cells; [2]): 2.26 nM
IC50 (NCI-N87 cells; [3]): 4.19 nM

CC[C@@]1(O)C(=O)OCc2c1cc1n(c2=O)Cc2c-1nc1cc(F)c(Cl)c3c1c2[C@@H](NC[C@H](C)O)CC3 (single isomer, unassigned) [Example 17 (3-7-A)]
IC50 (NCI-H358 cells; Homo sapiens, NCI-H358, 72 h, read-out: IC50, inhibitory activity on NCI-H358 cell proliferation, NCI-H358 human non-small cell lung cancer cells, 72 h incubation, Cell Counting-Lite 2.0): 49.4 nM
IC50 (MDA-MB-453 cells; Homo sapiens, MDA-MB-453, 72 h): 6.23 nM
IC50 (NCI-N87 cells; [4]): 5.32 nM

CC[C@@]1(O)C(=O)OCc2c1cc1n(c2=O)Cc2c-1nc1cc(F)c(C)c3c1c2[C@@](C)(NC(=O)C1(O)CC1)CC3 (single isomer, unassigned) [Example 14 (5-16-A)]
IC50 (HT29 cells; Homo sapiens, HT-29, 72 h): 3.87 nM

CC[C@@]1(O)C(=O)OCc2c1cc1n(c2=O)Cc2c-1nc1cc(F)c(C)cc1c2CCN(C(=O)CO)C(C)C [Example 10 (4-12), (S)—N-(2-(4-ethyl-8-fluoro-4-hydroxy-9-methyl-3,14-dioxo-3,4,12,14-tetrahydro-1H-pyrano[3′,4′:6,7]indolizino[1,2-b]quinolin-11-yl)ethyl)-2-hydroxy-N-isopropylacetamide]
IC50 (HT29 cells; HT-29, HT29 human colon cancer cells, 72 h incubation, Cell Counting-Lite 2.0): 4.79 nM

CC[C@@]1(O)C(=O)OCc2c1cc1n(c2=O)Cc2c-1nc1cc(F)c(Cl)c3c1c2[C@@H](N)CC3 (single isomer, unassigned) [Example 8 (3-1-A)]
IC50 (HT29 cells; Homo sapiens, HT-29, 72 h): 0.16 nM
IC50 (NCI-N87 cells; [4]): 0.37 nM

CC[C@@]1(O)C(=O)OCc2c1cc1n(c2=O)Cc2c-1nc1cc(F)c(Cl)c3c1c2C(NC(=O)C(O)C1CC1)CC3 (single isomer, unassigned) [Example 16 (3-12-C)]
IC50 (NCI-H358 cells; [5]): 28.3 nM
IC50 (MDA-MB-453 cells): 5.52 nM
IC50 (HCC1806 cells; [6]): 1.91 nM
IC50 (NCI-N87 cells; [7]): 3.99 nM

CC[C@@]1(O)C(=O)OCc2c1cc1n(c2=O)Cc2c-1nc1cc(F)c(Cl)c3c1c2C(NC(=O)C(O)C1CC1)CC3 (single isomer, unassigned) [Example 16 (3-12-B)]
IC50 (NCI-H358 cells; [5]): 19.8 nM
IC50 (MDA-MB-453 cells): 4.32 nM
IC50 (HCC1806 cells; [6]): 1.76 nM
IC50 (NCI-N87 cells; [7]): 3.45 nM

CC[C@@]1(O)C(=O)OCc2c1cc1n(c2=O)Cc2c-1nc1cc(Cl)c(C)c3c1c2[C@H](NC(=O)[C@H](O)C1CC1)CC3 [Example 5 (2-12-D), (2R)—N-((1R,9S)-5-chloro-9-ethyl-9-hydroxy-4-methyl-10,13-dioxo-2,3,9,10,13,15-hexahydro-1H,12H-benzo[de]pyrano[3′,4′:6,7]indolizino[1,2-b]quinolin-1-yl)-2-cyclopropyl-2-hydroxyacetamide]
IC50 (HT29 cells; Homo sapiens, HT-29, 72 h): 3.29 nM

CC[C@@]1(O)C(=O)OCc2c1cc1n(c2=O)Cc2c-1nc1cc(Cl)c(C)c3c1c2[C@@H](NCC(C)(C)O)CC3 [Example 6 (2-17-A), N-((1S,9S)-5-chloro-9-ethyl-9-hydroxy-4-methyl-10,13-dioxo-2,3,9,10,13,15-hexahydro-1H,12H-benzo[de]pyrano[3′,4′:6,7]indolizino[1,2-b]quinolin-1-yl)-2-hydroxy-2-methylpropylamine]
IC50 (HT29 cells; Homo sapiens, HT-29, 72 h): 1.24 nM

CC[C@@]1(O)C(=O)OCc2c1cc1n(c2=O)Cc2c-1nc1cc(F)c(Cl)c3c1c2[C@H](NC[C@@H](C)O)CC3 (single isomer, unassigned) [Example 25 (3-26-B)]
IC50 (HCC1806 cells; Homo sapiens, HCC1806, 72 h, read-out: IC50, inhibitory activity on HCC1806 cell proliferation, HCC1806 human breast squamous carcinoma cells, 72 h incubation, Cell Counting-Lite 2.0): 4.93 nM
IC50 (NCI-N87 cells; [4]): 25.3 nM

CC[C@@]1(O)C(=O)OCc2c1cc1n(c2=O)Cc2c-1nc1cc(Cl)c(C)c3c1c2[C@H](NC(=O)CO)CC3 [Example 3 (2-2-B), N-((1R,9S)-5-chloro-9-ethyl-9-hydroxy-4-methyl-10,13-dioxo-2,3,9,10,13,15-hexahydro-1H,12H-benzo[de]pyrano[3′,4′:6,7]indolizino[1,2-b]quinolin-1-yl)-2-hydroxyacetamide]
IC50 (HT29 cells; Homo sapiens, HT-29, 72 h): 7.52 nM
